Reference: patent publication US12527849B2, “Apparatus for determining administration form of a composition of an engineered virus-based nanoparticle for a treatment of an autoimmune condition” (Diamante Srl, priority 2021, dated 2026)

Tested on: IL-17A
Experiment: Pro-inflammatory cytokines in sera of CIA Collagen mice (ELISA, day 58): IL-17A
Format: in vivo
Settings: Dexamethasone oral 1 mg/kg, 20 times between day 28 and 57
Experimental: Critical administration 124 disclosed herein is further described below. Q5D represents administration 5 days a part. TBSV·pLIp1 and wt TBSV shown in Table 1 may include liquid form that are not sterile and stored in −20° C. TBSV·pLIp1 may be given at the dose of 50 μG/100 μL Male DBA/1J mice (8 weeks; Envigo, Italy) may be used for these studies. Mice may be housed in individual cages (two for each group) and maintained under a 12:12 light-dark cycle at 21° C.±1° C. and 50%±5% humidity. The animals may be acclimated to their environment for 1 week and had ad libitum access to tap water and standard rodent diet. All animal experiments may be complied with regulations in Italy (D.M. 116192), Europe (O.J of E.C. L 358/112/18/1986), and the United States (Animal Welfare Assurance Number A5594-01, Department of Health and Human Services, USA). […] Arthritis was assessed by using qualitative severity score system and hind paw volume (mL) measured by a plethysmometer on day 20, 22, 24, 26, 28, 30, 32, 34, 36, 38, 40, 42, 44, 46 48, 50, 52, 54, 56 and 58. Body weight was recorded on day 0, 6, 13, 16, 18, 20, 22, 24, 26, 28, 30, 32, 34, 36, 38, 40, 42, 44, 46, 50, 52, 54, 56 and 58. […]

Compound: C[C@@H]1C[C@H]2[C@@H]3CCC4=CC(=O)C=C[C@]4(C)[C@@]3(F)[C@@H](O)C[C@]2(C)[C@@]1(O)C(=O)CO [Dexamethasone, dexamethasone]
- IL-17A, % of reduction vs CIA Collagen: 25.07%
